Test results as given in publication PMC7803973, “Structural basis of malaria parasite phenylalanine tRNA-synthetase inhibition by bicyclic azetidines” (Nature Communications, 2021).
Entries after “also recorded” stand apart in the source; their conditions may differ.

Columns and labels:
PfcFRS = target: T1, PfcFRS (Plasmodium falciparum, UniProt Q8I246); test: PfcFRS mode of inhibition study (malachite green); format: biochemical; details: for 1/v (0.5 × IC50 ): inhibitor 0.5 × IC50; for 1/V (1 × IC50 ) / 1/v (1 × IC50 ): inhibitor 1 × IC50
T1 sequence (Q8I246 1-575): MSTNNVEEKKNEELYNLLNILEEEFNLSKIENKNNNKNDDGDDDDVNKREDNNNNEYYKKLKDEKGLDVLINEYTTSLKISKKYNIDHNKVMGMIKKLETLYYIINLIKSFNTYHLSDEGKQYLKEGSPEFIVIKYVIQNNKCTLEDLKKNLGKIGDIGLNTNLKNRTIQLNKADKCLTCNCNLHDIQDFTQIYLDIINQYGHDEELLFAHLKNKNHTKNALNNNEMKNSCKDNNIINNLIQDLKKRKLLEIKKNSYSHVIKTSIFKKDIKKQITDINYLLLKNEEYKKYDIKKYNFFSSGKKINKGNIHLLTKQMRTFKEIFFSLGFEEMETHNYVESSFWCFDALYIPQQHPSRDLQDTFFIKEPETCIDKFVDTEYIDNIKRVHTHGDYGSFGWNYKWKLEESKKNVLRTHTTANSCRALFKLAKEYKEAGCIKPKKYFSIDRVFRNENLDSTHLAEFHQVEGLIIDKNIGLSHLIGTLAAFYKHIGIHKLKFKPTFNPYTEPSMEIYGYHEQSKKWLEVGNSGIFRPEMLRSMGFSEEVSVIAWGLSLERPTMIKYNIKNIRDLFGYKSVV
T1 sequence (Q8IIW2 1-623 partner): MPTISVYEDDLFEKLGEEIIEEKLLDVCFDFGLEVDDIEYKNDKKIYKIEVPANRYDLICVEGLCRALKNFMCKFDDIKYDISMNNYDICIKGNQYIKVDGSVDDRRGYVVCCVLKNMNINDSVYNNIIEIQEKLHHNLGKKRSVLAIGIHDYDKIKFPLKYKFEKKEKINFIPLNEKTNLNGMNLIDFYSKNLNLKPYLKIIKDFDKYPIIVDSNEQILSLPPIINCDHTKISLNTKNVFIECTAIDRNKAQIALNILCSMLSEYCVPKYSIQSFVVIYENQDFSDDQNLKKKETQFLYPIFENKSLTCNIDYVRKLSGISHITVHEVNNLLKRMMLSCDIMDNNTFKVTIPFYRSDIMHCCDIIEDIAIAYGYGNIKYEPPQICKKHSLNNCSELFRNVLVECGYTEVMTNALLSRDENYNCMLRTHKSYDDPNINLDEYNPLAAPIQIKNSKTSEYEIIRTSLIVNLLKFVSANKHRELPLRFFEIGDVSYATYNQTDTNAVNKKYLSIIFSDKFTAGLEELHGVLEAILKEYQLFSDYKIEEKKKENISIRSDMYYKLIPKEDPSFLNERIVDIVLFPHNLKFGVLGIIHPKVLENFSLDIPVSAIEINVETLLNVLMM
Protocol: These were done using malachite green assay as per earlier published reports[1],[6]. Briefly, the reaction was performed for 100 µM ATP, 50 µM L-phenylalanine and 100 nM recombinant PheRS enzymes (Pf, Pv, Hs, Pf mutant (L550V)) in a buffer containing 30 mM HEPES (pH 7.5), 150 mM, NaCl, 30 mM KCl, 50 mM, MgCl2, 1 mM DTT, and 2 U/ml E. coli inorganic pyrophosphatase (NEB) at 37 °C. Enzymatic reactions (50 μl total volume) were performed in clear, flat-bottomed, 96-well plates (Costar 96-well standard microplates). The reaction mixture was incubated for 2 h at 37 °C. The reaction was stopped by adding 12.5 μl of malachite green solution to the reaction mixture and levels of inorganic phosphate (Pi) were detected after incubation of 5 min at room temperature. Absorbance was the measured at 620 nm using a Spectramax M2 (Molecular Devices). Reactions without FRS enzyme were performed as background controls, values of which were subtracted from the reactions with enzyme. BRD1389 was added to our aminoacylation assay reaction buffer in varying concentrations ranging from 0.1 nM to 10,000 nM. The IC50 value for the data is shown for three replicates as the mean ± SD.
To establish the mode of inhibition of BRD1389, data sets (generated using the malachite Green assay platform as described in the above enzyme inhibition assays method section) were collected by varying both the inhibitor and substrate concentrations.

Dd2 = test: Whole parasite growth inhibition (Dd2), quoted in peer review file; format: cell-based; details: quoted by Reviewer #2 from the submitted manuscript
[1] = ATP 15.6 uM, saturating L-Phe 1000 μM
[2] = ATP 31.25 uM, saturating L-Phe 1000 μM
[3] = ATP 62.5 uM, saturating L-Phe 1000 μM
[4] = ATP 125 uM, saturating L-Phe 1000 μM
[5] = ATP 250 uM, saturating L-Phe 1000 μM
[6] = ATP 500 uM, saturating L-Phe 1000 μM
[7] = L-Phe 0.015625 mM, saturating ATP 500 μM
[8] = L-Phe 0.031 mM, saturating ATP 500 μM
[9] = L-Phe 0.0625 mM, saturating ATP 500 μM
[10] = L-Phe 0.125 mM, saturating ATP 500 μM
[11] = L-Phe 0.25 mM, saturating ATP 500 μM
[12] = L-Phe 0.5 mM, saturating ATP 500 μM
[13] = L-Phe 1 mM, saturating ATP 500 μM

SMILES: COC[C@@H]1[C@H](c2ccc(C#Cc3ccccc3)cc2)[C@@H]2CN(C(=O)Nc3ccc(OC4CC4)cc3)C[C@@H](O)[C@@H](O)CN12 [BRD1389]
- Ki (PfcFRS; ATP varied, L-Phe saturating, non-competitive inhibition model): 10 ± 5 nM
- Ki (PfcFRS; L-Phe varied, ATP constant, global competitive inhibition model): 6 ± 2 nM
- Mode of inhibition with respect to ATP (PfcFRS; PfcFRS, ATP varied at saturating L-Phe): non-competitive inhibition; also recorded: likely a non-competitive inhibitor
- Mode of inhibition with respect to L-Phe (PfcFRS; PfcFRS, L-Phe varied at saturating ATP): competitive inhibition; also recorded: competitive inhibitor
- 1/v (0.5 × IC50 ) (PfcFRS; [1]): 50.7634
- 1/v (0.5 × IC50 ) (PfcFRS; [2]): 35.2611
- 1/v (0.5 × IC50 ) (PfcFRS; [3]): 25.2226
- 1/v (0.5 × IC50 ) (PfcFRS; [4]): 18.8398
- 1/v (0.5 × IC50 ) (PfcFRS; [5]): 16
- 1/v (0.5 × IC50 ) (PfcFRS; [6]): 13.77
- 1/v (0.5 × IC50 ) (PfcFRS; [7]): 19.05
- 1/v (0.5 × IC50 ) (PfcFRS; [8]): 12.5
- 1/v (0.5 × IC50 ) (PfcFRS; [9]): 10
- 1/v (0.5 × IC50 ) (PfcFRS; [10]): 8.3
- 1/v (0.5 × IC50 ) (PfcFRS; [11]): 7.2
- 1/v (0.5 × IC50 ) (PfcFRS; [12]): 6.5
- 1/v (0.5 × IC50 ) (PfcFRS; [13]): 6.2
- 1/V (1 × IC50 ) (PfcFRS; [1]): 66.6667
- 1/V (1 × IC50 ) (PfcFRS; [2]): 44.4444
- 1/V (1 × IC50 ) (PfcFRS; [3]): 40.1698
- 1/V (1 × IC50 ) (PfcFRS; [4]): 25.8
- 1/V (1 × IC50 ) (PfcFRS; [5]): 20
- 1/V (1 × IC50 ) (PfcFRS; [6]): 13.7741
- 1/v (1 × IC50 ) (PfcFRS; [7]): 30
- 1/v (1 × IC50 ) (PfcFRS; [8]): 18.03
- 1/v (1 × IC50 ) (PfcFRS; [9]): 12
- 1/v (1 × IC50 ) (PfcFRS; [10]): 9
- 1/v (1 × IC50 ) (PfcFRS; [11]): 8
- 1/v (1 × IC50 ) (PfcFRS; [12]): 7.2
- 1/v (1 × IC50 ) (PfcFRS; [13]): 7
- Dd2 growth inhibitory activity (Dd2): < 1 nM
